In patent publication US6541203B2, “Detecting structural or synthetic information about chemical compounds” (President and Fellows of Harvard College, priority 1998, dated 2003):

How the values were obtained:
RNA molecules = details: specific RNA molecules; cited from earlier work
anti-dig = experiment: Detection of hapten on TANTAGEL beads with anti-dig and AP-coupled secondary antibody; assay type: binding, mouse; details: 100% coupling on the beads
Protocol: Ninety (90) micrometer TANTAGEL-amine beads were mixed with dig-NHS ester at different concentrations to covalently label the beads with dig. Dig-NHS was added in amounts sufficient to label 100%, 10%, 1%, 0.1%, 0.01% and 0.001% of the amino groups. The remaining amino groups were capped with acetic anhydride, and the beads were washed.
Dig-labeled beads were incubated with anti-dig (1 microgram/ml) in the presence of BSA and buffer. The beads were washed, incubated with alkaline phosphatase (AP)-coupled goat anti-mouse antibody, and washed again. Then a chromogenic precipitating substrate (commercially available) for detecting AP was added. Blue color on the beads indicates the presence of AP, and thus effective detection of the dig hapten by antibody.

Compound	Kd (RNA molecules)	Staining of beads (anti-dig)
N=C(N)NCCC[C@@H](N)C(=O)O [D-arginine]	1700 nM	–
c1cc2ccc3cccc4ccc(c1)c2c34 [pyrene]	–	no staining
